The source of these data is patent US9796711B2, “Substituted pyrazolo[3,4-b]pyridin-6-carboxylic acids and method of use” (AbbVie S.àr.l., priority 2015, dated 2017).

Experiment [1] has as its target T1, ΔF508-CFTR (Homo sapiens, UniProt P13569, DEL508-508).
T1 construct: host or cells: CFBE41o-, doxycycline-inducible
In words: CFTR cell surface levels using HRP-tagged ΔF508-CFTR expressing CFBE cells, in the presence of a co-corrector. Particulars: HRP-tagged ΔF508-CFTR expressing CFBE cells, in the presence of 3 μM co-corrector; for EC50: read-out: EC50. In kind it is cell-based. Put shortly: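 Cells were seeded with 0.5 μg/mL doxycycline and held 68 h at 37 °C. Test compounds plus 3 μM co-corrector (final 0.1% DMSO) were then added for 20 h at 33 °C. Washed cells received HRP substrate, and luminescence was normalized between DMSO and 3 μM co-corrector controls.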

Experiment [2] concerns the target T1, ΔF508-CFTR. The experiment in a line: CFTR cell surface levels using HRP-tagged ΔF508-CFTR expressing CFBE cells, intrinsic corrector capacity. Particulars: for EC50: read-out: EC50. In kind it is cell-based. Put shortly: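 Here the cells express ΔF508-CFTR with horseradish peroxidase inserted in extracellular loop 4, so only rescued channel at the surface gives luminescent signal. Compounds act on their own, 20 h at the reduced temperature of 33 °C; values are percent activity relative to DMSO and a 3 μM corrector.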

Where [3] appears, read: HRP-tagged ΔF508-CFTR expressing CFBE cells, intrinsic corrector capacity (no co-corrector), 33° C., 20 hours.
Where [4] appears, read: HRP-tagged ΔF508-CFTR CFBE41o- cells, compounds alone (intrinsic corrector capacity), 20 hours at 33° C., positive control 3 μM corrector.
Setting [5] is: HRP-tagged ΔF508-CFTR CFBE41o- cells, compounds alone (intrinsic corrector capacity), 20 hours at 33° C.

T1 sequence (P13569 with tags, fused parts or gaps DEL508-508): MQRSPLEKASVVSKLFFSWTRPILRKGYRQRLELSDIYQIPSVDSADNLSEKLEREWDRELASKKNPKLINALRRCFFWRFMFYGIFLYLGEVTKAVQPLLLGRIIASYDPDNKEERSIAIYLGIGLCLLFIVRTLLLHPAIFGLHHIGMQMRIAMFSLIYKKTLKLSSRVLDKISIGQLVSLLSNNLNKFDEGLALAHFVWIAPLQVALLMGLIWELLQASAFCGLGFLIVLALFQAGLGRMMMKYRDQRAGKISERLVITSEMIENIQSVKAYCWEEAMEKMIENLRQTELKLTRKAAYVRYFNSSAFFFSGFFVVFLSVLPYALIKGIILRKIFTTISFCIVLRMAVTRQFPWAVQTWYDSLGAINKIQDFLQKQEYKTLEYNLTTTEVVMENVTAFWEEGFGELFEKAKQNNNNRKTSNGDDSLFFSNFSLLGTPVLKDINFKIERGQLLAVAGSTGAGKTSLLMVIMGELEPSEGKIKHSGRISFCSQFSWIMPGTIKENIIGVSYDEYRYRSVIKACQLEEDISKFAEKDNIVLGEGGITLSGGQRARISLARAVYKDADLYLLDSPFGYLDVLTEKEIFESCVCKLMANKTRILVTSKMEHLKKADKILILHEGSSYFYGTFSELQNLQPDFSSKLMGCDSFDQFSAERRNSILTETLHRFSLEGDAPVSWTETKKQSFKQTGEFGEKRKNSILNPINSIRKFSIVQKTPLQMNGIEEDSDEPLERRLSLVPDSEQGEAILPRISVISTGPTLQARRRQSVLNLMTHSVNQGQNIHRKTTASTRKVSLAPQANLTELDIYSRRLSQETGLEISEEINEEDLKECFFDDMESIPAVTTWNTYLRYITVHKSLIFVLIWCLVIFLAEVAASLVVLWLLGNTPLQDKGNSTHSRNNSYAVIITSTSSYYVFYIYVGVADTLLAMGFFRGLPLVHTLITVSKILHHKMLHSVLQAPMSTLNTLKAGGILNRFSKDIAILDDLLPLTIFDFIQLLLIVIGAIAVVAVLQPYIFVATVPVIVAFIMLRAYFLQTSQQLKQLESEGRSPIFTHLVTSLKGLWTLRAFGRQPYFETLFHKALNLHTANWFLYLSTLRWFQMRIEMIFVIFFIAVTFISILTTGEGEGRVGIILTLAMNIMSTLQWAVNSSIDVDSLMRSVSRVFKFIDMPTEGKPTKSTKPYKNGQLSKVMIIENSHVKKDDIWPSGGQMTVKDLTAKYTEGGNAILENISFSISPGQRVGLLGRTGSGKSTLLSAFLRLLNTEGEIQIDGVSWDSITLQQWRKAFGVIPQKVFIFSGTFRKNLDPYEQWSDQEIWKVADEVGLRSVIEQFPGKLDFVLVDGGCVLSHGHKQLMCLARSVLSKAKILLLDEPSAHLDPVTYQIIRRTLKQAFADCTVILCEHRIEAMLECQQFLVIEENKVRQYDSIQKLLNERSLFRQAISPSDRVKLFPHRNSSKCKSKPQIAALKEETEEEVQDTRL

For orientation: EC50 means the midpoint of the concentration-response curve. `CC(C)c1nn(-c2ccc(F)cc2)c2nc(C(=O)O)cc(N3CC[C@@H](N4CCCCC4)C3)c12` [compound 786, 1-(4-fluorophenyl)-4-[(3R)-3-(piperidin-1-yl)pyrrolidin-1-yl]-3-(propan-2-yl)-1H-pyrazolo[3,4-b]pyridine-6-carboxylic acid]: on ΔF508-CFTR [1], the “% Activation” value is given as 221.6% and the EC50 stood at 0.907 µM. For the same molecule, on ΔF508-CFTR [2] (setting [3]), the “% Activation” value was determined as 67.03% and the EC50 is 1.16 µM.

For the molecule `CC(C)c1nn(-c2ccc(F)cc2)c2nc(C(=O)O)cc(N3CCN(CC4CCCN(C)C4)CC3)c12` (centres unmarked) [compound 791, 1-(4-fluorophenyl)-4-{4-[(1-methylpiperidin-3-yl)methyl]piperazin-1-yl}-3-(propan-2-yl)-1H-pyrazolo[3,4-b]pyridine-6-carboxylic acid], on ΔF508-CFTR [1], the “% Activation” value is given as 307.5% and the EC50 was 1.67 µM. On ΔF508-CFTR [2] (setting [3]), the “% Activation” value was 79.95% and the EC50 was determined as 1.67 µM.

Regarding `COCC1CN(c2cc(C(=O)O)nc3c2c(C2CCC2)nn3-c2ccccc2)C1` [compound 418, 3-cyclobutyl-4-[3-(methoxymethyl)azetidin-1-yl]-1-phenyl-1H-pyrazolo[3,4-b]pyridine-6-carboxylic acid], the “% Activation” value on ΔF508-CFTR [1] is on record as 342.25%; on ΔF508-CFTR [2] (setting [3]), 144.95%. In addition, the EC50 is 0.598 µM at ΔF508-CFTR [1] and 1.22 µM on ΔF508-CFTR [2] (setting [3]).

Turning to `O=C(O)c1cc(N2CC[C@@H](N3CCOCC3)C2)c2c(C3CCC3)nn(-c3ccccc3)c2n1` [compound 577, 3-cyclobutyl-4-[(3R)-3-(morpholin-4-yl)pyrrolidin-1-yl]-1-phenyl-1H-pyrazolo[3,4-b]pyridine-6-carboxylic acid], on ΔF508-CFTR [1], the “% Activation” value was found to be 300.47% and the EC50 is 1.15 µM. Further, at ΔF508-CFTR [2] (setting [3]), the “% Activation” value was found to be 108% and the EC50 turned out to be 3.03 µM.

Regarding `CO[C@H]1C[C@@H](c2nn(-c3ccccc3)c3nc(C(=O)O)cc(-c4ccc(N5CCC(C#N)CC5)nc4)c32)C1` [compound 421, 4-[6-(4-cyanopiperidin-1-yl)pyridin-3-yl]-3-(cis-3-methoxycyclobutyl)-1-phenyl-1H-pyrazolo[3,4-b]pyridine-6-carboxylic acid], on ΔF508-CFTR [1], the “% Activation” value was 368.65% and the concentration for a half-maximal effect (EC50) was found to be 0.723 µM. In addition, on ΔF508-CFTR [2] (setting [3]), the “% Activation” value stood at 184.4% and the EC50 was 1.29 µM.

`O=C(O)c1cc(N2CCN(CC(F)(F)F)CC2)c2c(C3CCC3)nn(-c3ccccc3)c2n1` [compound 470, 3-cyclobutyl-1-phenyl-4-[4-(2,2,2-trifluoroethyl)piperazin-1-yl]-1H-pyrazolo[3,4-b]pyridine-6-carboxylic acid]: on ΔF508-CFTR [1], the “% Activation” value was 311.25% and the EC50 amounted to 0.427 µM. Further, at ΔF508-CFTR [2] (setting [3]), the “% Activation” value came to 147.5% and the concentration giving a half-maximal response (EC50) amounted to 0.736 µM.

`Cc1nn(-c2ccccc2)c2nc(C(=O)O)cc(N3CC4(CCCCO4)C3)c12` [compound 312, 3-methyl-4-(5-oxa-2-azaspiro[3.5]nonan-2-yl)-1-phenyl-1H-pyrazolo[3,4-b]pyridine-6-carboxylic acid]: the entries for the “% Activation” value at ΔF508-CFTR [1] and at ΔF508-CFTR [2] (setting [4]) were 185% and 61.325%, respectively. Also, the EC50 at ΔF508-CFTR [1] was 2.32 µM; at ΔF508-CFTR [2] (setting [5]), 2.51 µM.

For `CC(C)c1nn(-c2cc(F)cc(F)c2)c2nc(C(=O)O)cc(-c3cnc(N(C)C4CCOCC4)nc3)c12` [compound 317, 1-(3,5-difluorophenyl)-4-{2-[methyl(oxan-4-yl)amino]pyrimidin-5-yl}-3-(propan-2-yl)-1H-pyrazolo[3,4-b]pyridine-6-carboxylic acid], the entries for the “% Activation” value on ΔF508-CFTR [1] and on ΔF508-CFTR [2] (setting [4]) were 433.4% and 216.25%, respectively. For the same molecule, the EC50 at ΔF508-CFTR [1] is 0.972 µM; at ΔF508-CFTR [2] (setting [5]), 0.695 µM.
